Consider 24 compounds from paper PMC6390472, “‘Second-generation’ 1,2,3-triazole-based inhibitors of Porphyromonas gingivalis adherence to oral streptococci and biofilm formation” (MedChemComm, 2019).

For series [1], the system named is P. gingivalis adherence to S. gordonii. In words: Biofilm model of P. gingivalis adherence to S. gordonii (confocal, green/red fluorescence ratio). Type of series: cell-based, P. gingivalis ATCC33277 / S. gordonii DL-1. To be noted: inhibition of P. gingivalis adherence to S. gordonii; concentration that reduced ratio of green to red fluorescence by 50%; tested 0–60 μM. The protocol: (§1) P. gingivalis ATCC33277 was grown in reduced trypticase soy broth (Difco) supplemented with 0.5 percent yeast extract, 1 μg mL^–1 menadione, and 5 μg mL^–1 hemin. Twenty five milliliters of medium were reduced for 24 h under anaerobic conditions by equilibrating in an atmosphere consisting of 10% CO2, 10% H2, and 80% N2. Following equilibration, P. gingivalis was inoculated in the medium and grown for 48 h at 37 °C under anaerobic conditions. S. gordonii DL-1 (1) was cultured aerobically without shaking in brain heart infusion (BHI) broth supplemented with 1 percent yeast extract for 16 hours at 37 °C. For some compounds that inhibited P. gingivalis adherence to S. gordonii, we determined their effect on planktonic growth of P. gingivalis and S. gordonii. The appropriate growth medium (10 ml) was supplemented with 10 μl of a 40 mM compound stock solution in DMSO. After inoculation, broth cultures were incubated as described above and compared to cultures grown in medium that was supplemented only with 0.1% DMSO. The cell density of each culture was determined by measuring the optical density at 600 nm (O.D.600nm) and the percent growth inhibition/stimulation was calculated using the following equation: [(O.D.600nm of the control/O.D.600nm of the culture grown in the presence of compound) – 1] × 100.
Two species biofilms were formed essentially as previously described.[39] To prepare bacterial cells for biofilm culture, 10 ml of an overnight S. gordonii culture was centrifuged at 5600 rpm for 5 min and the cell pellet was suspended in 1 mL sterile PBS. Subsequently, 20 μL of 5 mg ml^–1 hexidium iodide (Molecular Probes) was added to the cell suspension and incubated for 15 min with gentle shaking at room temperature in the dark. The labeled cells were centrifuged as described above, washed with phosphate-buffered saline (10 mM Na2HPO4, […], […], and 2.7 mM KCl, pH 7.2; [PBS]) and the cell pellet was suspended in PBS at a final O.D.600nm of 0.8. Similarly, 10 mL of a 48 h culture of P. gingivalis was centrifuged at 5600 rpm for 15 min, the cell pellet was suspended in 1 mL PBS and 20 μL of 5(6)-carboxyfluorescein N-hydroxysuccinimide ester (4 mg ml^–1, Molecular Probes, Inc.) was added. After incubation for 30 min with gentle shaking at room temperature in the dark, the suspension was centrifuged and washed as described above and suspended in PBS at a final O.D.600nm of 0.4. For biofilm cultures, 1 mL of labeled S. gordonii cells was added to each well of a 12-well microtiter plate (Greiner Bio-one) containing a circular coverslip (Fisher brand) and incubated in an anaerobic chamber with rotary shaking for 24 h at 37 °C. Unbound cells were removed by aspiration and 1 ml of labeled P. gingivalis cells containing the desired concentration of test compound was added and incubated under anaerobic conditions for 22 h at 37 °C. Test compounds were dissolved in dimethyl sulfoxide (DMSO) to generate 1000× stock solutions and were routinely tested over a final concentration range of 0–60 μM. 1 μL of the appropriate stock solution was added to each 1 mL aliquot of labeled P. gingivalis cells and incubated for 30 min at room temperature prior to adding the suspension to the microtiter plate wells. For control biofilms, 1 μL of DMSO was added to 1 mL of labeled P. gingivalis and incubated as described above.
To visualize P. gingivalis/S. gordonii biofilms, unbound P. gingivalis cells were removed by aspiration and coverslips were washed once with PBS. Biofilms were fixed by incubating the coverslips with 1 mL of 4% paraformaldehyde for 5 min followed by two washes with PBS. The coverslips were then removed, placed face down on a glass microscope slide containing a drop of antifade reagent (Life Technology) and sealed with nail polish. […]

For another series, the system named is P. gingivalis. In words: Planktonic growth of P. gingivalis (O.D.600nm). The class given is cell-based, P. gingivalis ATCC33277. To be noted: Porphyromonas gingivalis, read-out: Percent inhibition of: P. gingivalis (planktonic growth). The protocol:
as §1

The next series concerns S. gordonii. In words: Planktonic growth of S. gordonii (O.D.600nm). The class given is cell-based, S. gordonii DL-1. To be noted: Streptococcus gordonii, read-out: Percent inhibition of: S. gordonii (planktonic growth). As to the method: as §1
Another series deals with TIGK cells. In words: Cellular ATP levels, CellTiterGlo. The class given is cell-based, Human. To be noted: for ATP levels: 95 (5, 20, 40 μM), 111 (5, 20, 60 μM), 115 (5, 10, 20 μM), 122 (5, 20, 60 μM). The protocol:
Human telomerase immortalized gingival keratinocytes (TIGKs) were provided by Dr. Richard Lamont (University of Louisville) and were authenticated by comparison to primary gingival epithelial cells for cell morphology, growth, cytokeratin expression and the expression of toll-like receptors. TIGKs were cultured at 37 °C in an atmosphere of 5% CO2 in Basal Medium Dermalife K complete kit with Supplements (LifeLine, Frederick, MD). Cultures were incubated for 5 days and attained >95% confluence.
Cell metabolic activity was assessed by quantifying total ATP levels in cell culture samples using CellTiterGlo reagent (Promega). TIGK and J774A.1 cells were cultured and incubated with compounds as described above, washed three times with sterile PBS and incubated with 100 μl of CellTiterGlo substrate for 2 min with shaking and for an additional 10 min without shaking. Total light production was measured using a Victor 3 multi-label plate reader (PerkinElmer) in luminometer mode. All samples were assayed in triplicate.
A general note: In ATP-based viability assays light output follows the ATP content of the culture.

Where [2] appears, read: 40 μM compound, cultures incubated overnight, vs 0.1% DMSO.

Like-named read-outs stand apart in the source and are kept apart here. Some results are limits rather than exact numbers.

With `COc1ccccc1-c1cn(-c2ccc(S(=O)(=O)Cc3nc(-c4ccc(F)cc4)c(-c4ccc(F)cc4)o3)cc2)nn1` [Compound 54], the half-inhibitory concentration (IC50) (commonly the point on the concentration scale where inhibition reaches its midpoint) in series [1] turned out to be 21.2 µM. Besides, the inhibition (in general, the change of the read-out against control, counted positive when it falls) at 40 µM in the series on P. gingivalis (setting [2]) is -3.4%; in the series with S. gordonii (setting [2]) it was -3.3%.

Regarding `O=S(=O)(Cc1nc(-c2ccc(Cl)cc2)c(-c2ccc(Cl)cc2)o1)c1ccc(-n2cc(-c3ccc(F)cc3)nn2)cc1` [Compound 56], in series [1], the IC50 amounted to 6.3 µM. The values for the inhibition at 40 µM in the series on P. gingivalis (setting [2]) and in the series with S. gordonii (setting [2]) were -2.7% and 6.2 ± 8.8%, respectively.

`COc1ccccc1-c1cn(-c2ccc(S(=O)(=O)Cc3nc(-c4ccc(Cl)cc4)c(-c4ccc(Cl)cc4)o3)cc2)nn1` [Compound 57]: the melting point (as a rule, the temperature of the solid-liquid transition) is 236 to 238 °C. Moreover, in series [1], the half-inhibitory concentration (IC50) was determined as 20 µM.

In the case of `CCN(CC)c1nc(-c2cn(-c3ccc(-c4nc(-c5ccc(F)cc5)c(-c5ccc(F)cc5)o4)cc3)nn2)nc(N(CC)CC)n1` [Compound 93], in series [1], the IC50 is 9.4 µM. Further, the results for the inhibition at 40 µM in the series with P. gingivalis (setting [2]) and in the series with S. gordonii (setting [2]) were 2 ± 6.1% and -2%, respectively.

Consider `CCN(CC)c1nc(-c2cn(-c3ccc(-c4nc(-c5ccc(Cl)cc5)c(-c5ccc(Cl)cc5)o4)cc3)nn2)nc(N(CC)CC)n1` [Compound 95], for which the ATP levels entry in the series with TIGK cells (18 h exposure) is “did not significantly reduce the levels of ATP”. Besides, in series [1], the half-inhibitory concentration (IC50) worked out at 3.7 µM. Also, the inhibition at 40 µM in the series on P. gingivalis (setting [2]) was 0.4 ± 6.1%; in the series on S. gordonii (setting [2]), -0.8%.

Regarding `Fc1ccc(-c2nc(-c3cccc(-n4cc(-c5nc(Nc6ccccc6F)nc(Nc6ccccc6F)n5)nn4)c3)oc2-c2ccc(F)cc2)cc1` [Compound 102], in series [1], the IC50 is 5 µM. Besides, the inhibition at 40 µM with P. gingivalis (setting [2]) was -8.3%; with S. gordonii (setting [2]), -0.6%.

As to `Fc1ccc(-c2nc(-c3ccc(-n4cc(-c5nc(Nc6ccccc6F)nc(Nc6ccccc6F)n5)nn4)cc3)oc2-c2ccc(F)cc2)cc1` [Compound 103], the concentration for half-maximal inhibition (IC50) in series [1] was found to be 12.3 µM. Moreover, the figures for the inhibition at 40 µM in the series on P. gingivalis (setting [2]) and in the series with S. gordonii (setting [2]) were -1.3% and -8.6%, respectively.

`Fc1ccccc1Nc1nc(Nc2ccccc2F)nc(-c2cn(-c3ccc(-c4nc(-c5ccco5)c(-c5ccco5)o4)cc3)nn2)n1` [Compound 109]: in series [1], the IC50 was greater than 60 µM.

As to `Fc1ccc(Nc2nc(Nc3ccc(F)cc3)nc(-c3cn(-c4ccccc4-c4nc(-c5ccccc5)c(-c5ccccc5)o4)nn3)n2)cc1` [Compound 110], the half-maximal inhibitory concentration (IC50) in series [1] is greater than 60 µM.

With `Fc1ccc(Nc2nc(Nc3ccc(F)cc3)nc(-c3cn(-c4cccc(-c5nc(-c6ccccc6)c(-c6ccccc6)o5)c4)nn3)n2)cc1` [Compound 111], the “Concentration with cytotoxic activity relative to IC50 for inhibition of adherence” value in the series on TIGK cells (60 μM vs IC50) is on record as “approximately 15 fold”. In the series with TIGK cells (18 h exposure, 60 μM, p < 0.05 vs 0.1% DMSO), the “Reduction of ATP levels” value is listed as “statistically significant”. Moreover, in the series on TIGK cells (18 h exposure), the ATP levels result is on record as “dose-dependent reduction of ATP levels”. In addition, the IC50 in series [1] worked out at 4.3 µM. In addition, the inhibition at 40 µM came to 8.3 ± 3.6% in the series on P. gingivalis and 2.9 ± 3.9% in the series on S. gordonii.

With `Fc1ccc(Nc2nc(Nc3ccc(F)cc3)nc(-c3cn(-c4ccc(-c5nc(-c6ccccc6)c(-c6ccccc6)o5)cc4)nn3)n2)cc1` [Compound 112], the IC50 in series [1] was greater than 60 µM.

Turning to `Fc1ccc(Nc2nc(Nc3ccc(F)cc3)nc(-c3cn(-c4ccccc4-c4nc(-c5ccc(F)cc5)c(-c5ccc(F)cc5)o4)nn3)n2)cc1` [Compound 113], the IC50 in series [1] was 49.2 µM.

`Fc1ccc(Nc2nc(Nc3ccc(F)cc3)nc(-c3cn(-c4cccc(-c5nc(-c6ccc(F)cc6)c(-c6ccc(F)cc6)o5)c4)nn3)n2)cc1` [Compound 114]: the IC50 in series [1] was greater than 60 µM.

Take `Fc1ccc(Nc2nc(Nc3ccc(F)cc3)nc(-c3cn(-c4ccc(-c5nc(-c6ccc(F)cc6)c(-c6ccc(F)cc6)o5)cc4)nn3)n2)cc1` [Compound 115]: in the series with TIGK cells (18 h exposure), the ATP levels entry is “did not significantly reduce the levels of ATP”. For the same compound, in series [1], the IC50 came out at 2.3 µM. For the same compound, the inhibition at 40 µM was -2.8% in the series with P. gingivalis (setting [2]) and -0.6% in the series with S. gordonii (setting [2]).

Regarding `Fc1ccc(Nc2nc(Nc3ccc(F)cc3)nc(-c3cn(-c4ccccc4-c4nc(-c5ccc(Cl)cc5)c(-c5ccc(Cl)cc5)o4)nn3)n2)cc1` [Compound 116], in series [1], the concentration for half-maximal inhibition (IC50) is greater than 40 µM.

In the case of `Fc1ccc(Nc2nc(Nc3ccc(F)cc3)nc(-c3cn(-c4cccc(-c5nc(-c6ccc(Cl)cc6)c(-c6ccc(Cl)cc6)o5)c4)nn3)n2)cc1` [Compound 117], the IC50 in series [1] was found to be 27.8 µM.

`Fc1ccc(Nc2nc(Nc3ccc(F)cc3)nc(-c3cn(-c4ccc(-c5nc(-c6ccc(Cl)cc6)c(-c6ccc(Cl)cc6)o5)cc4)nn3)n2)cc1` [Compound 118]: the IC50 in series [1] is 13.3 µM.

`COc1ccc(-c2nc(-c3ccccc3-n3cc(-c4nc(Nc5ccc(F)cc5)nc(Nc5ccc(F)cc5)n4)nn3)oc2-c2ccc(OC)cc2)cc1` [Compound 119]: the half-inhibitory concentration (IC50) in series [1] is greater than 60 µM.

Take `COc1ccc(-c2nc(-c3cccc(-n4cc(-c5nc(Nc6ccc(F)cc6)nc(Nc6ccc(F)cc6)n5)nn4)c3)oc2-c2ccc(OC)cc2)cc1` [Compound 120]: in series [1], the IC50 was greater than 60 µM.

As to `COc1ccc(-c2nc(-c3ccc(-n4cc(-c5nc(Nc6ccc(F)cc6)nc(Nc6ccc(F)cc6)n5)nn4)cc3)oc2-c2ccc(OC)cc2)cc1` [Compound 121], in series [1], the half-inhibitory concentration (IC50) is greater than 60 µM.

For the compound `Fc1ccc(Nc2nc(Nc3ccc(F)cc3)nc(-c3cn(-c4ccccc4-c4nc(-c5ccco5)c(-c5ccco5)o4)nn3)n2)cc1` [Compound 122], the ATP levels result with TIGK cells (18 h exposure) is given as “did not significantly reduce the levels of ATP”. In addition, the half-inhibitory concentration (IC50) in series [1] worked out at 2.4 µM. The results for the inhibition at 40 µM in the series on P. gingivalis (setting [2]) and in the series on S. gordonii (setting [2]) were 2.5 ± 5.4% and -0.6%, respectively.

On to `Fc1ccc(Nc2nc(Nc3ccc(F)cc3)nc(-c3cn(-c4cccc(-c5nc(-c6ccco6)c(-c6ccco6)o5)c4)nn3)n2)cc1` [Compound 123], for which the IC50 in series [1] was 8 µM.

Regarding `Fc1ccc(Nc2nc(Nc3ccc(F)cc3)nc(-c3cn(-c4ccc(-c5nc(-c6ccco6)c(-c6ccco6)o5)cc4)nn3)n2)cc1` [Compound 124], the IC50 in series [1] is 7.8 µM.

Regarding `CN(C)[C@@H]1C(O)=C(C(N)=O)C(=O)[C@@]2(O)C(O)=C3C(=O)c4c(O)cccc4[C@@](C)(O)[C@H]3C[C@@H]12` [Tet, tetracycline, reference compound], the values for the inhibition at 10 µg/mL in the series with P. gingivalis (10 μg ml^–1 tetracycline) and in the series on S. gordonii (10 μg ml^–1 tetracycline) were 95.7 ± 1.2% and 94.2 ± 1.7%, respectively.
